A short description of this experiment: Ability to inhibit human tissue plasminogen activator stimulator.

pKi: −log10 of the molar value.

In turn, `Cc1ccc(N=C(N)N)nc1` [N-(5-Methyl-pyridin-2-yl)-guanidine] had a pKi of 3.61.

By pKi is commonly meant the Ki on a negative log10 scale, so that one unit is a factor of ten. A high value points to a low Ki.
